{"source": "patent US20110098304A1", "about": "“Small molecule inhibitors of PARP activity” (priority 2009, published 2011)", "biological_target": "T1, human PARD-1 (Poly (ADP-Ribose) Polymerase-1) (Homo sapiens, UniProt P09874)", "T1 construct": "purchased Trevigen Inc., Gaithersburg, Md", "T1 sequence (P09874 whole entry)": "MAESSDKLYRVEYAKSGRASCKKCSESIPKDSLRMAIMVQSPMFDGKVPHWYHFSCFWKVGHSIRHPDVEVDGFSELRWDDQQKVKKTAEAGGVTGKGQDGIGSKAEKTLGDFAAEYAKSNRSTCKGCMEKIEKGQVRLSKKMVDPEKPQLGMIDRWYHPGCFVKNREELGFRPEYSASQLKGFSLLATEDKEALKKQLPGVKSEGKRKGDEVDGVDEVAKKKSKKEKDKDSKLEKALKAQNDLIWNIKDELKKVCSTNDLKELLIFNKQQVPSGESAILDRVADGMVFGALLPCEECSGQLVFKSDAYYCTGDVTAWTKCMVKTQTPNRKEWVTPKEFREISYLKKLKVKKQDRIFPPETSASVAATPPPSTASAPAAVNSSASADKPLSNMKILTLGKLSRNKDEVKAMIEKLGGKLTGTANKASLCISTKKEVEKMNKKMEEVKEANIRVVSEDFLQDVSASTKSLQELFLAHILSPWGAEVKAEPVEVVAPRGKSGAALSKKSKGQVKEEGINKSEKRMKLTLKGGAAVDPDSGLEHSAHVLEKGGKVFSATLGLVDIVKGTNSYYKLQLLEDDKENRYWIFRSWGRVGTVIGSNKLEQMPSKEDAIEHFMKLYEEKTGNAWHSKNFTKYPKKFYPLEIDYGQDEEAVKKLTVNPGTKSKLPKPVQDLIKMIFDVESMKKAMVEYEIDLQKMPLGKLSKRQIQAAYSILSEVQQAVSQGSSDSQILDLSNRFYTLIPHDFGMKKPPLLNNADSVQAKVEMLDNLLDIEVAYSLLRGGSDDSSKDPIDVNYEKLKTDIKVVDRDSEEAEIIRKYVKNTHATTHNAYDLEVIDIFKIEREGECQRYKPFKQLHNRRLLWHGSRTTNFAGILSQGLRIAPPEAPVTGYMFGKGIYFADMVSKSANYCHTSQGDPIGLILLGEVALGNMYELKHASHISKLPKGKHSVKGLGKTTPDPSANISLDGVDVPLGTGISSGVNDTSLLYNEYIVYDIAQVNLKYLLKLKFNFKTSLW", "assay": "Poly (ADP-Ribose) Polymerase-1 in vitro enzyme assay (Universal Colorimetric Assay Kit, Trevigen)", "assay_type": "biochemical", "conditions": "letter codes; read-out: extent of inhibition of PARP activity (IC50, micromolar)", "description": "Poly (ADP-Ribose) Polymerase-1 (PARD-1) In Vitro Enzyme Assay: Compounds were screened for inhibitory activity against human PARD-1 in vitro using the Universal Colorimetric PARD Assay Kit (Trevigen Inc., Gaithersburg, Md.) as directed by the supplier. Compounds are assayed in duplicate in 0.5% DMSO final concentration, negative control is no enzyme, while positive control is DMSO vehicle alone. IC50 determinations are made using Microsoft Excel. For all cell assays, compounds are added to cells in 5% DMSO/PBS for a final concentration of 0.5% DMSO."}
{"smiles": "Nc1cc(-c2n[nH]c(=O)c3ccccc23)ccc1N1CCN(CCCO)CC1", "note": "[4-(3-amino-4-(4-(3-hydroxypropyl)piperazin-1-yl)phenyl)phthalazin-1(2H)-one]", "values": [{"measurement": "IC50", "value": "0.001 to 0.1", "unit": "µM"}]}
{"smiles": "CC(C)(C)N1CCN(c2ccc(-c3n[nH]c(=O)c4ccccc34)cc2N)CC1", "note": "[4-(3-amino-4-(4-tert-butylpiperazin-1-yl)phenyl)phthalazin-1(2H)-one]", "values": [{"measurement": "IC50", "value": "0.001 to 0.1", "unit": "µM"}]}
{"smiles": "CN1CCN(c2ccc(-c3n[nH]c(=O)c4ccccc34)cc2NC(=O)Cc2cccs2)CC1", "note": "[N-(2-(4-methylpiperazin-1-yl)-5-(4-oxo-3,4-dihydrophthalazin-1-yl)phenyl)-2-(thiophen-2-yl)acetamide]", "values": [{"measurement": "IC50", "value": "1 to 5", "unit": "µM"}]}
{"smiles": "CC(C)(C)C(=O)Nc1cc(-c2n[nH]c(=O)c3ccccc23)ccc1N1CCN(C(C)(C)C)CC1", "note": "[N-(2-(4-tert-butylpiperazin-1-yl)-5-(4-oxo-3,4-dihydrophthalazin-1-yl)phenyl)pivalamide]", "values": [{"measurement": "IC50", "value": "> 5", "unit": "µM"}]}
{"smiles": "CN1CCN(c2ccc(-c3n[nH]c(=O)c4ccccc34)cc2NC(=O)NC2CCCCC2)CC1", "note": "[1-cyclohexyl-3-(2-(4-methylpiperazin-1-yl)-5-(4-oxo-3,4-dihydrophthalazin-1-yl)phenyl)urea]", "values": [{"measurement": "IC50", "value": "0.1 to 1", "unit": "µM"}]}
{"smiles": "CC(C)C(=O)Nc1cc(-c2n[nH]c(=O)c3ccccc23)ccc1N1CCN(C)CC1", "note": "[N-(2-(4-methylpiperazin-1-yl)-5-(4-oxo-3,4-dihydrophthalazin-1-yl)phenyl)isobutyramide]", "values": [{"measurement": "IC50", "value": "1 to 5", "unit": "µM"}]}
{"smiles": "Nc1cc(-c2n[nH]c(=O)c3ccccc23)ccc1N1CCN(CC2CCCO2)CC1", "note": "(centres unmarked) [4-(3-amino-4-(4-((tetrahydrofuran-2-yl)methyl)piperazin-1-yl)phenyl)phthalazin-1(2H)-one]", "values": [{"measurement": "IC50", "value": "0.1 to 1", "unit": "µM"}]}
{"smiles": "CN1CCN(c2ccc(-c3n[nH]c(=O)c4ccccc34)cc2NC(=O)C(C)(C)C)CC1", "note": "[N-(2-(4-methylpiperazin-1-yl)-5-(4-oxo-3,4-dihydrophthalazin-1-yl)phenyl)pivalamide]", "values": [{"measurement": "IC50", "value": "> 5", "unit": "µM"}]}
{"smiles": "Nc1cc(-c2n[nH]c(=O)c3ccccc23)ccc1N1CCN(Cc2ccncc2)CC1", "note": "[4-(3-amino-4-(4-(pyridin-4-ylmethyl)piperazin-1-yl)phenyl)phthalazin-1(2H)-one]", "values": [{"measurement": "IC50", "value": "0.001 to 0.1", "unit": "µM"}]}
{"smiles": "CN1CCN(c2ccc(-c3n[nH]c(=O)c4ccccc34)cc2NC(=O)c2ccc3c(c2)OCO3)CC1", "note": "[N-(2-(4-methylpiperazin-1-yl)-5-(4-oxo-3,4-dihydrophthalazin-1-yl)phenyl)benzo[d][1,3]dioxole-5-carboxamide]", "values": [{"measurement": "IC50", "value": "0.1 to 1", "unit": "µM"}]}
{"smiles": "CCNC(=O)Nc1cc(-c2n[nH]c(=O)c3ccccc23)ccc1N1CCN(C)CC1", "note": "[1-ethyl-3-(2-(4-methylpiperazin-1-yl)-5-(4-oxo-3,4-dihydrophthalazin-1-yl)phenyl)urea]", "values": [{"measurement": "IC50", "value": "1 to 5", "unit": "µM"}]}
{"smiles": "CN1CCN(c2ccc(-c3n[nH]c(=O)c4ccccc34)cc2NC(=O)CCl)CC1", "note": "[2-chloro-N-(2-(4-methylpiperazin-1-yl)-5-(4-oxo-3,4-dihydrophthalazin-1-yl)phenyl)acetamide]", "values": [{"measurement": "IC50", "value": "0.1 to 1", "unit": "µM"}]}
{"smiles": "CNC(=O)Nc1cc(-c2n[nH]c(=O)c3ccccc23)ccc1N1CCN(C)CC1", "note": "[1-methyl-3-(2-(4-methylpiperazin-1-yl)-5-(4-oxo-3,4-dihydrophthalazin-1-yl)phenyl)urea]", "values": [{"measurement": "IC50", "value": "0.1 to 1", "unit": "µM"}]}
{"smiles": "Nc1cc(-c2n[nH]c(=O)c3ccccc23)ccc1N1CCN(CC2CCCCC2)CC1", "note": "[4-(3-amino-4-(4-(cyclohexylmethyl)piperazin-1-yl)phenyl)phthalazin-1(2H)-one]", "values": [{"measurement": "IC50", "value": "0.001 to 0.1", "unit": "µM"}]}
{"smiles": "CCN1CCN(c2ccc(-c3n[nH]c(=O)c4ccccc34)cc2NC(C)=O)CC1", "note": "[N-(2-(4-ethylpiperazin-1-yl)-5-(4-oxo-3,4-dihydrophthalazin-1-yl)phenyl)acetamide]", "values": [{"measurement": "IC50", "value": "1 to 5", "unit": "µM"}]}
{"smiles": "CC(=O)Nc1cc(-c2n[nH]c(=O)c3ccccc23)ccc1N1CCN(C(C)C)CC1", "note": "[N-(2-(4-isopropylpiperazin-1-yl)-5-(4-oxo-3,4-dihydrophthalazin-1-yl)phenyl)acetamide]", "values": [{"measurement": "IC50", "value": "1 to 5", "unit": "µM"}]}
{"smiles": "COCCN1CCN(c2ccc(-c3n[nH]c(=O)c4ccccc34)cc2N)CC1", "note": "[4-(3-amino-4-(4-(2-methoxyethyl)piperazin-1-yl)phenyl)phthalazin-1(2H)-one]", "values": [{"measurement": "IC50", "value": "0.1 to 1", "unit": "µM"}]}
{"smiles": "COC(=O)C(=O)Nc1cc(-c2n[nH]c(=O)c3ccccc23)ccc1N1CCN(C)CC1", "note": "[methyl 2-(2-(4-methylpiperazin-1-yl)-5-(4-oxo-3,4-dihydrophthalazin-1-yl)phenylamino)-2-oxoacetate]", "values": [{"measurement": "IC50", "value": "0.1 to 1", "unit": "µM"}]}
{"smiles": "Nc1ccccc1N1CCN(c2ccc(-c3n[nH]c(=O)c4ccccc34)cc2N)CC1", "note": "[4-(3-amino-4-(4-(2-aminophenyl)piperazin-1-yl)phenyl)phthalazin-1(2H)-one]", "values": [{"measurement": "IC50", "value": "1 to 5", "unit": "µM"}]}
{"smiles": "Nc1cc(-c2n[nH]c(=O)c3ccccc23)ccc1N1CCN(Cc2ccccc2)CC1", "note": "[4-(3-amino-4-(4-benzylpiperazin-1-yl)phenyl)phthalazin-1(2H)-one]", "values": [{"measurement": "IC50", "value": "0.1 to 1", "unit": "µM"}]}
{"smiles": "CN1CCN(c2ccc(-c3n[nH]c(=O)c4ccccc34)cc2NC(=O)Nc2ccc(F)cc2)CC1", "note": "[1-(4-fluorophenyl)-3-(2-(4-methylpiperazin-1-yl)-5-(4-oxo-3,4-dihydrophthalazin-1-yl)phenyl)urea]", "values": [{"measurement": "IC50", "value": "0.1 to 1", "unit": "µM"}]}
{"smiles": "Nc1cc(-c2n[nH]c(=O)c3ccccc23)ccc1N1CCN(CCO)CC1", "note": "[4-(3-amino-4-(4-(2-hydroxyethyl)piperazin-1-yl)phenyl)phthalazin-1(2H)-one]", "values": [{"measurement": "IC50", "value": "0.001 to 0.1", "unit": "µM"}]}
{"smiles": "Nc1cc(-c2n[nH]c(=O)c3ccccc23)ccc1N1CCN(CC(=O)O)CC1", "note": "[2-(4-(2-amino-4-(4-oxo-3,4-dihydrophthalazin-1-yl)phenyl)piperazin-1-yl)acetic acid]", "values": [{"measurement": "IC50", "value": "0.001 to 0.1", "unit": "µM"}]}
{"smiles": "Nc1cc(-c2n[nH]c(=O)c3ccccc23)ccc1N1CCN(c2ccncc2)CC1", "note": "[4-(3-amino-4-(4-(pyridin-4-yl)piperazin-1-yl)phenyl)phthalazin-1(2H)-one]", "values": [{"measurement": "IC50", "value": "0.001 to 0.1", "unit": "µM"}]}
{"smiles": "CN1CCN(c2ccc(-c3n[nH]c(=O)c4ccccc34)cc2NC(=O)NC(C)(C)C)CC1", "note": "[1-tert-butyl-3-(2-(4-methylpiperazin-1-yl)-5-(4-oxo-3,4-dihydrophthalazin-1-yl)phenyl)urea]", "values": [{"measurement": "IC50", "value": "0.1 to 1", "unit": "µM"}]}
{"smiles": "CCN1CCN(c2ccc(-c3n[nH]c(=O)c4ccccc34)cc2N)CC1", "note": "[4-(3-amino-4-(4-ethylpiperazin-1-yl)phenyl)phthalazin-1(2H)-one]", "values": [{"measurement": "IC50", "value": "0.001 to 0.1", "unit": "µM"}]}
{"smiles": "CN1CCN(c2ccc(-c3n[nH]c(=O)c4ccccc34)cc2NC(=O)NC(=O)c2ccccc2)CC1", "note": "[N-(2-(4-methylpiperazin-1-yl)-5-(4-oxo-3,4-dihydrophthalazin-1-yl)phenylcarbamoyl)benzamide]", "values": [{"measurement": "IC50", "value": "0.1 to 1", "unit": "µM"}]}
{"smiles": "Nc1cc(-c2n[nH]c(=O)c3ccccc23)ccc1N1CCN(C2CC2)CC1", "note": "[4-(3-amino-4-(4-cyclopropylpiperazin-1-yl)phenyl)phthalazin-1(2H)-one]", "values": [{"measurement": "IC50", "value": "0.001 to 0.1", "unit": "µM"}]}
{"smiles": "CN1CCC(N2CCN(c3ccc(-c4n[nH]c(=O)c5ccccc45)cc3N)CC2)CC1", "note": "[4-(3-amino-4-(4-(1-methylpiperidin-4-yl)piperazin-1-yl)phenyl)phthalazin-1(2H)-one]", "values": [{"measurement": "IC50", "value": "0.001 to 0.1", "unit": "µM"}]}
{"smiles": "CC(=O)Nc1cc(-c2n[nH]c(=O)c3ccccc23)ccc1N1CCN(C(C)=O)CC1", "note": "[N-(2-(4-acetylpiperazin-1-yl)-5-(4-oxo-3,4-dihydrophthalazin-1-yl)phenyl)acetamide]", "values": [{"measurement": "IC50", "value": "1 to 5", "unit": "µM"}]}
{"smiles": "Nc1cc(-c2n[nH]c(=O)c3ccccc23)ccc1N1CCN(CCC(=O)O)CC1", "note": "[3-(4-(2-amino-4-(4-oxo-3,4-dihydrophthalazin-1-yl)phenyl)piperazin-1-yl)propanoic acid]", "values": [{"measurement": "IC50", "value": "0.1 to 1", "unit": "µM"}]}
{"smiles": "Nc1cc(-c2n[nH]c(=O)c3ccccc23)ccc1N1CCN(Cc2cccnc2)CC1", "note": "[4-(3-amino-4-(4-(pyridin-3-ylmethyl)piperazin-1-yl)phenyl)phthalazin-1(2H)-one]", "values": [{"measurement": "IC50", "value": "0.001 to 0.1", "unit": "µM"}]}
{"smiles": "CN1CCN(c2ccc(-c3n[nH]c(=O)c4ccccc34)cc2NC(=O)C2CCCCC2)CC1", "note": "[N-(2-(4-methylpiperazin-1-yl)-5-(4-oxo-3,4-dihydrophthalazin-1-yl)phenyl)cyclohexanecarboxamide]", "values": [{"measurement": "IC50", "value": "0.1 to 1", "unit": "µM"}]}
{"smiles": "CC(C)(C)OC(=O)CN1CCN(c2ccc(-c3n[nH]c(=O)c4ccccc34)cc2N)CC1", "note": "[tert-butyl 2-(4-(2-amino-4-(4-oxo-3,4-dihydrophthalazin-1-yl)phenyl)piperazin-1-yl)acetate]", "values": [{"measurement": "IC50", "value": "0.1 to 1", "unit": "µM"}]}
{"smiles": "CN1CCN(c2ccc(-c3n[nH]c(=O)c4ccccc34)cc2NC(=O)NC2CCCC2)CC1", "note": "[1-cyclopentyl-3-(2-(4-methylpiperazin-1-yl)-5-(4-oxo-3,4-dihydrophthalazin-1-yl)phenyl)urea]", "values": [{"measurement": "IC50", "value": "0.1 to 1", "unit": "µM"}]}
{"smiles": "CC(C)N1CCN(c2ccc(-c3n[nH]c(=O)c4ccccc34)cc2N)CC1", "note": "[4-(3-amino-4-(4-isopropylpiperazin-1-yl)phenyl)phthalazin-1(2H)-one]", "values": [{"measurement": "IC50", "value": "0.001 to 0.1", "unit": "µM"}]}
{"smiles": "CC(=O)Nc1cc(-c2n[nH]c(=O)c3ccccc23)ccc1N1CCN(C(C)(C)C)CC1", "note": "[N-(2-(4-tert-butylpiperazin-1-yl)-5-(4-oxo-3,4-dihydrophthalazin-1-yl)phenyl)acetamide]", "values": [{"measurement": "IC50", "value": "1 to 5", "unit": "µM"}]}
{"smiles": "CN1CCN(c2ccc(-c3n[nH]c(=O)c4ccccc34)cc2N)CC1", "note": "[4-(3-amino-4-(4-methylpiperazin-1-yl)phenyl)phthalazin-1(2H)-one]", "values": [{"measurement": "IC50", "value": "0.001 to 0.1", "unit": "µM"}]}
{"smiles": "CC(=O)Nc1cc(-c2n[nH]c(=O)c3ccccc23)ccc1N1CCN(C)CC1", "note": "[N-(2-(4-methylpiperazin-1-yl)-5-(4-oxo-3,4-dihydrophthalazin-1-yl)phenyl)acetamide]", "values": [{"measurement": "IC50", "value": "0.1 to 1", "unit": "µM"}]}
{"smiles": "N#CCCN1CCN(c2ccc(-c3n[nH]c(=O)c4ccccc34)cc2N)CC1", "note": "[3-(4-(2-amino-4-(4-oxo-3,4-dihydrophthalazin-1-yl)phenyl)piperazin-1-yl)propanenitrile]", "values": [{"measurement": "IC50", "value": "0.001 to 0.1", "unit": "µM"}]}
{"smiles": "CN1CCN(c2ccc(-c3n[nH]c(=O)c4ccccc34)cc2NC(=O)c2ccco2)CC1", "note": "[N-(2-(4-methylpiperazin-1-yl)-5-(4-oxo-3,4-dihydrophthalazin-1-yl)phenyl)furan-2-carboxamide]", "values": [{"measurement": "IC50", "value": "0.1 to 1", "unit": "µM"}]}
